Source: patent publication US20170333391A1, “METHOD FOR DELAYING THE ONSET OF PULMONARY FIBROSIS OR TREATING PULMONARY FIBROSIS” (EVERFRONT BIOTECH INC., priority 2016, published 2017)

What was measured:
type I collagen = test: Type I collagen expression in TGF-β1-induced NHLF, western blotting (2-2); type: cell-based, human; conditions: TGF-β1-only control group = 1
Description: Normal Human lung fibroblasts (NHLF) were seeded into 6 cm culture dishes at a density of 2×10^5 cells/dish, comprising a control group and six experimental groups (7 dishes in total). The cells were cultured until the next day, and then the mediums were removed. Each group was respectively treated under the following conditions to conduct follow-up experiments: • (1) Positive control group: cells were cultured in a FGM-2 medium containing 1% serum and TGF-β1 (5 ng/ml) for 36 hours; • (2) Group I: cells were firstly cultured in a FGM-2 medium containing 1% serum and TGF-β1 (5 ng/ml) for 12 hours, and then compound (1) was added into the medium to provide a final concentration of 15 μg/ml; thereafter, the cells were cultured for another 24 hours; • (3) Group II: cells were firstly cultured in a FGM-2 medium containing 1% serum and TGF-β1 (5 ng/ml) for 12 hours, and then compound (1) was added into the medium to provide a final concentration of 25 μg/ml; thereafter, the cells were cultured for another 24 hours; • (4) Group III: cells were firstly cultured in a FGM-2 medium containing 1% serum and TGF-β1 (5 ng/ml) for 12 hours, and then compound (1) was added into the medium to provide a final concentration of 35 μg/ml; thereafter, the cells were cultured for another 24 hours; • (5) Group IV: cells were firstly cultured in a FGM-2 medium containing 1% serum and TGF-β1 (5 ng/ml) for 12 hours, and then the Pirfenidone was added into the medium to provide a final concentration of 100 μg/ml; thereafter, the cells were cultured for another 24 hours; • (6) Group V: cells were firstly cultured in a FGM-2 medium containing 1% serum and TGF-β1 (5 ng/ml) for 12 hours, and then the Pirfenidone was added into the medium to provide a final concentration of 250 μg/ml; thereafter, the cells were cultured for another 24 hours; and • (7) Group VI: cells were firstly cultured in a FGM-2 medium containing 1% serum and TGF-β1 (5 ng/ml) for 12 hours, and then the Pirfenidone was added into the medium to provide a final concentration of 500 μg/ml; thereafter, the cells were cultured for another 24 hours.
Thereafter, the proteins in the cells of each group were extracted, and the expressions of type I collagen, BMP-7 protein and TGF-β protein in the NHLF cells of each group were measured with western blotting. The results of the control group served as the basis for calculating the relative expression levels of the other groups.

[1] = test system: C57B/L6 mice injected with Bleomycin sulfate (inducer of pulmonary fibrosis); test: Lung tissue slice observation (H&E stain) in Bleomycin sulfate mice; type: in vivo; conditions: compared to oil group
Description: 24 C57B/L6 mice (age: four weeks) were separated into four groups (6 mice in each group). Each group was respectively treated under the following conditions to conduct follow-up experiments: • (1) Control group (mice without pulmonary fibrosis; i.e., normal mice): 50 μl of PBS was administrated to each mouse by intratracheal injection, and then the mice were fed for 30 days; • (2) Oil group: 0.6 U/50 μl of Bleomycin sulfate (dissolved in PBS) was administrated to each mouse by intratracheal injection, and then 100 μl of olive oil was orally administrated to each mouse every day for 30 days; • (3) Low-dose group: 0.6 U/50 μl of Bleomycin sulfate (dissolved in PBS) was administrated to each mouse by intratracheal injection, and then compound (1) (10 mg/kg-body weight, prepared with olive oil to provide a final volume of 100 μl) was orally administrated to each mouse every day for 30 days; and • (4) High-dose group: 0.6 U/50 μl of Bleomycin sulfate (dissolved in PBS) was administrated to each mouse by intratracheal injection, and then compound (1) (50 mg/kg-body weight, prepared with olive oil to provide a final volume of 100 μl) was orally administrated to each mouse every day for 30 days.
After completing the measurement of the pulmonary function in Example 6, the mice were sacrificed. Pulmonary tissue samples were taken from the mice, and separated into two groups (each group comprised samples from the control group, oil group, low-dose group and high-dose group). One of the two groups was preserved at −20° C. for the follow-up experiment, and the other group was analyzed by hematoxylin-sosin stain (H&E stain).

IL-β = IL-β mRNA in mouse pulmonary tissue, RT-PCR; type: in vivo, mice; conditions: Bleomycin sulfate, normal control = 1, oil group = 2.34
Description: 24 C57B/L6 mice (age: four weeks) were separated into four groups (6 mice in each group). […]
Then, for another portion of ground samples of each group, the total RNAs were extracted using an RNeasy Mini Kit. The QuantiTect Reverse Transcription Kit was used to conduct reverse transcription on the total RNA to obtain the cDNA. […]

[2] = High-dose group, compound (1) 50 mg/kg orally daily 30 days
[3] = Low-dose group, compound (1) 10 mg/kg orally daily 30 days

Compound: CCCC=C1OC(=O)c2ccccc21 [compound (1)]
- Relative expression level (fold) Type I collagen (type I collagen; Group I: TGF-β1 5 ng/ml 12 h, then compound (1) 15 μg/ml 24 h): 0.79 fold
- Relative expression level (fold) Type I collagen (type I collagen; Group II: TGF-β1 5 ng/ml 12 h, then compound (1) 25 μg/ml 24 h): 0.30 fold
- Relative expression level (fold) Type I collagen (type I collagen; Group III: TGF-β1 5 ng/ml 12 h, then compound (1) 35 μg/ml 24 h): 0.51 fold
- alveolar wall tissue thickness (H&E stain) [1, 2]: significantly thinner
- level of abnormal infiltration of pulmonary cells (H&E stain) [1, 2]: significantly less
- alveolar wall tissue thickness (H&E stain) [1, 3]: significantly thinner
- level of abnormal infiltration of pulmonary cells (H&E stain) [1, 3]: significantly less
- Relative expression level (fold) IL-β (IL-β; High-dose group: mRNA in pulmonary tissue, compound (1) 50 mg/kg-body weight orally every day for 30 days): 0.52 fold
- Relative expression level (fold) IL-β (IL-β; Low-dose group: mRNA in pulmonary tissue, compound (1) 10 mg/kg-body weight orally every day for 30 days): 1.02 fold
